± gives the expanded uncertainty stated by the source.
Details: Crystal; Heating/Cooling curves

Normal melting temperature	Structure (SMILES)
35.38 ± 0.21 °C	O=C1OCCO1 [ethylene carbonate]
17.80 ± 2 °C	C[S+](C)[O-] [dimethyl sulfoxide]
3.91 ± 0.6 °C	COC(=O)OC [dimethyl carbonate]
-44.08 ± 0.41 °C	CC#N [acetonitrile]
-55.01 ± 0.41 °C	CCOC(=O)OC [ethyl methyl carbonate]
-77.29 ± 0.6 °C	CCOC(=O)OCC [diethyl carbonate]
20.2 ± 0.21 °C	[2H]C([2H])([2H])S(=O)C([2H])([2H])[2H] [(methyl sulfoxide)-d6]
-73.44 ± 0.09 °C	CCOC(=O)CC [ethyl propanoate]
12.47 ± 0.21 °C	CCCCCCCC[N+](C)(CCCCCCCC)CCCCCCCC.O=C([O-])C(F)(F)F [methyltrioctylammonium trifluoroacetate]

Second part, the molecule before the results:

Structure (SMILES)	Normal melting temperature
O=C1CCCO1 [γ-butyrolactone]	-44.71 ± 0.21 °C
COCCC#N [3-methoxypropanenitrile]	-63.62 ± 0.53 °C
CCC1COC(=O)O1 (stereo unspecified) [1,2-butylene carbonate]	-52.81 ± 1.2 °C
CCn1cc[n+](C)c1.O=S(=O)([O-])C(F)(F)F [1-ethyl-3-methylimidazolium trifluoromethanesulfonate]	-10.92 ± 0.6 °C
C1COCCO1 [1,4-dioxane]	11.33 ± 0.41 °C
COCCOC [1,2-dimethoxyethane]	-69.74 ± 0.21 °C
C[N+](=O)[O-] [nitromethane]	-29.79 ± 0.41 °C

Reference: the NIST ThermoML archive (doi:10.1016/j.jct.2008.05.012)
